Here are results for nine compounds from US20100016324A1, “PHARMACEUTICAL COMPOSITIONS FOR THE TREATMENT OF CELLULITE” (MENARINI RICERCHE S.P.A., priority 2004, published 2010).

The test system of one data set is human adipocytes. The experiment in a line: in vitro lipolysis test: glycerol release stimulated by 10 nM isoprenalin in cultured human adipocytes. The format is cell-based. As to conditions: Adipocyte, 15 min preincubation, 4 h, read-out: % INCREASE IN LIPOLYSIS
The procedure:
Determination of extracellular glycerol produced by lipolysis of adipocyte triglycerides.
The in vitro lipolysis test was conducted on human adipocytes obtained from primary cultures of their progenitors, preadipocytes (Promocell), by inducing differentiation. The actual adipocyte differentiation was established by assaying glycerol-3-phosphate dehydrogenase (an enzyme expressed in mature adipocytes, but not in preadipocytes) and the lipids accumulated at intracellular level, with Oil Red O (Sigma).
The PDE3 inhibitors were preincubated with the adipocytes at various concentrations for 15 min; 10 nM of isoprenalin, able to induce weak stimulation of lipolysis (25% of the maximum response obtained with isoprenalin 1 μM), was then added. After 4 h the culture medium was removed, and […].
Lipolytic activity was evaluated by determining the glycerol released into the extracellular medium following triglyceride hydrolysis.
Effect of Some PDE Inhibitors on Glycerol Release, Stimulated by 10 nM Isoprenalin, in Cultured Human Adipocytes

Data set [1] deals with cellulite in the upper outer part of the thighs. The experiment in a line: In vivo test: thigh circumference in healthy female adults with cellulite, cream vs base cream. More on the design: species or system human. The note with it: cream with 1% Milrinone, topical, twice a day for 2 months, 10 healthy female adults. The procedure:
10 healthy female adults presenting evident cellulite in the upper outer part of the thighs were examined. Each patient served as her own control for evaluation of efficacy and safety. […] Treatment with approx. 2-3 cm of cream, massaged in for 2-3 minutes until absorbed, was repeated twice a day every day for 2 months. […] The circumference of each thigh was measured periodically, two-thirds of the way between the knee and the greater trochanter, until the end of treatment. The reduction in circumference of the pharmacologically treated thigh compared with the untreated thigh was 2.9±0.7 cm, with a range of 1.3-4.7 cm.

Data set [2] is described as follows: Determination of the compound in the blood at the end of the observation period. The format is in vivo, human. As to conditions: after topical cream with 1% Milrinone twice a day for 2 months. As to the method: 10 healthy female adults presenting evident cellulite in the upper outer part of the thighs were examined.
Each patient served as her own control for evaluation of efficacy and safety. The cream containing the active constituent (1% Milrinone) was spread on the outer part of one thigh, while the base cream (without the active constituent) was spread in the same area of the other thigh, in a randomised manner.
Treatment with approx. 2-3 cm of cream, massaged in for 2-3 minutes until absorbed, was repeated twice a day every day for 2 months.

Regarding `Nc1cc(-c2ccncc2)c[nH]c1=O` [Amrinone], in the data set on human adipocytes, the activation at 10 µM was 20 ± 6%.
Consider `O=C1CN2Cc3c(ccc(Cl)c3Cl)N=C2N1` [Anagrelide, anagrelide], for which the activation at 10 µM in the data set with human adipocytes was 114 ± 11%.
Still for that read-out and setting: with `Cn1c(=O)c2c(ncn2C)n(C)c1=O` [Caffeine, caffeine] the figure was 10 ± 5%.
For `O=C1CCc2cc(OCCCCc3nnnn3C3CCCCC3)ccc2N1` [Cilostazol, cilostazol], the activation at 10 µM in the data set with human adipocytes turned out to be 31 ± 9%.
In the case of `CSc1ccc(C(=O)c2[nH]c(=O)[nH]c2C)cc1` [Enoximone, enoximone], in the data set on human adipocytes, the activation at 10 µM was determined as 65 ± 4%.
On to `Cc1[nH]c(=O)c(C#N)cc1-c1ccncc1` [Milrinone, milrinone], for which the activation at 10 µM with human adipocytes turned out to be 151 ± 16%. In addition, the “reduction in circumference of the pharmacologically treated thigh compared with the untreated thigh” value in data set [1] (mean ± spread) was 2.9±0.7 cm. Also, the “reduction in circumference of the pharmacologically treated thigh compared with the untreated thigh, range” value in data set [1] (range across patients) is recorded as 1.3-4.7 cm. Also, the “presence of the compound in the blood” value in data set [2] is listed as “did not detect the presence of the compound”.
With `COc1ccc(-c2nc3ccc(C4=NNC(=O)CC4C)cc3[nH]2)cc1` (stereo not drawn) [Pimobendan, pimobendan], in the data set on human adipocytes, the activation at 10 µM was found to be 159 ± 22%.
With `Cn1c(=O)c2[nH]cnc2n(C)c1=O` [Theophylline, theophylline], in the data set on human adipocytes, the activation at 10 µM is 5 ± 4%.
Regarding `COc1cc2c(cc1OC)-c1c/c(=N\c3c(C)cc(C)cc3C)n(C)c(=O)n1CC2` [Trequinsin, trequinsin], the activation at 10 µM in the data set on human adipocytes turned out to be 276 ± 59%.
